Legend:
Format in all cases: in vivo, human
MMP-9 = test: Serum MMP-9 by gelatin zymography, 2-year randomized clinical trial of SDD versus placebo; details: postmenopausal osteopenic women with periodontitis, 20 mg doxycycline b.i.d. for 2 years, 92 kDa gelatinase
Source text: (§1) Elevated circulating MMP 9 has been associated with increased risk for fatal cardiac events and PM are considered a population vulnerable, due to decreased estrogen levels, to cardiovascular disease.
(§2) Details concerning subject inclusion and exclusion criteria have been published previously (Payne et al., J. Clin. Periodontol. 34:776-787, 2007). Briefly, subjects were 45-70 years of age at telephone screening, postmenopausal, osteopenic at the lumbar spine or femoral neck, and not receiving hormone replacement therapy (HRT). […] The subjects also had to be in good general health without co-morbidities that could have interfered with adherence to the study protocol, planned follow-up or endpoint measurement.
(§3) 113 PM women who completed the randomized clinical trial (RCT) consented at the final (two-year) study visit for the analysis of stored serum samples. 51 subjects received SDD (20 mg doxycycline) and 62 received placebo tablets b.i.d. for 2 years. Serum samples were collected at the baseline, 1-year and 2-year appointments and frozen at −80° C. until analyzed. MMPs were measured by gelatin zymography using denatured type I collagen as a substrate and purified MMP-2 (72 kDa) and MMP-9 (92 kDa) as standards. Gelatinolytic bands were scanned densitometrically. Statistical analyses were performed using Generalized Estimating Equations. Primary analyses were intent-to-treat (ITT). […]

MMP-2 = test: Serum MMP-2 by gelatin zymography, 2-year randomized clinical trial of SDD versus placebo; details: per-protocol analysis, p=0.03, SDD minus placebo
Source text: as §1, §2, §3

CRP = test: Serum CRP by high-sensitivity ELISA, 2-year RCT of SDD versus placebo; details: intent-to-treat
Source text: The objective of this study was to determine whether sub-antimicrobial-dose-doxycycline (SDD) can reduce serum inflammatory biomarkers associated with cardiovascular disease (CVD) risk (primary outcome: CRP) in a two-year, randomized controlled clinical trial (RCT) in postmenopausal (PM) women with systemic osteopenia and periodontitis.
(§4) 113 women who completed the RCT (SDD group: n=51; placebo group: n=62) consented at the final (two-year) study visit for their baseline, one-year and two-year serum samples to be analyzed for serum inflammatory biomarkers. Analyses by ELISA included CRP (high-sensitivity ELISA), IL-6, myeloperoxidase (MPO), IL-1β and TNF-α. Serum lipids (total cholesterol, HDL cholesterol, LDL cholesterol, VLDL cholesterol, and triglycerides) were analyzed by a commercial laboratory. Statistical analyses were performed using Generalized Estimating Equations; primary analyses were intent-to-treat (ITT). Pre-specified subgroup analyses also were performed. All results are presented as ratios of median values (SDD versus placebo) unless otherwise indicated.

[1] = Serum lipids (commercial laboratory), 2-year RCT of SDD versus placebo; details: subgroup: women more than 5 years postmenopausal
Source text: as §4, with “The objective of this study was to determine whether sub-antimicrobial-dose-doxycycline (SDD) can reduce serum inflammatory biomarkers associated with cardiovascular disease (CVD) risk (primary outcome: CRP) in a two-year, randomized controlled clinical trial (RCT) in postmenopausal (PM) women with systemic osteopenia and periodontitis. 113” for “113”

MMP-8/TIMP-1 = test: Median MMP-8/TIMP-1 ratio, further analysis of the 2-year RCT; details: women within five years of menopause, at two years

With `C[C@H]1c2cccc(O)c2C(=O)C2=C(O)[C@]3(O)C(=O)C(C(N)=O)=C(O)[C@@H](N(C)C)[C@@H]3[C@@H](O)[C@@H]21` [SDD, 6α-deoxy-5-hydroxytetracycline] the “reduction of serum MMP-9 levels (difference in means, SDD minus placebo)” value (MMP-9; intent-to-treat analysis) was 28.4 scanning units, the “reduction of serum MMP-9 levels (difference in means, SDD minus placebo)” value (MMP-9; per-protocol analysis) was 29.4 scanning units and the “reduction of serum MMP-2, 2-year values (average)” value (MMP-2) was 16.5 units. The “reduction of median CRP levels compared to placebo” value (CRP; 2-year RCT, serum) was 18%, the “CRP, ratio of median values (SDD versus placebo)” value (CRP; 95% CI 0.70 to 0.97, p=0.02) was 0.82 and the “VLDL cholesterol, ratio of median values (SDD versus placebo)” value ([1]; 95% CI 0.76 to 1.00, p=0.06) was 0.87. The “triglycerides, ratio of median values (SDD versus placebo)” value ([1]; 95% CI 0.76 to 1.01, p=0.06) was 0.87, the “increase in HDL cholesterol over time (difference in means)” value ([1]; 95% CI 1.17 to 10.81, p=0.01) was 5.99 mg/dL and the “reduction of median MMP-8/TIMP-1 ratio” value (MMP-8/TIMP-1) was 49%. For the same compound, the “MMP-8/TIMP-1, ratio of medians (SDD relative to placebo)” value (MMP-8/TIMP-1; 95% CI 0.31 to 0.82, p=0.006) was 0.51.

Reference: patent US20120046249A1, “METHODS OF REDUCING THE RISK OF CARDIOVASCULAR DISEASE IN POSTMENOPAUSAL WOMEN” (priority 2008, published 2012)
